Data as given in US10189854B2, “Substituted pyrimidine compounds” (Grünenthal GmbH, priority 2014, dated 2019).

Biological target: human PDE4B1 (Homo sapiens (Human), UniProt Q07343)
Test: TR-FRET assay using the LANCE Ultra cAMP kit to determine the activity of hPDE4B1
Type: biochemical
Settings: IC50 inhibition of PDE4B, mean
Description: TR-FRET Assay Using the LANCE® Ultra cAMP Kit to Determine the Activity of hPDE4B1
The effects of the compounds on the activity of the human PDE4B1 was quantified by measuring the production of 5′AMP from cAMP using a human recombinant enzyme expressed in Sf9 cells and the LANCE® Ultra cAMP kit, a TR-FRET detection method from PerkinElmer. The human PDE4B1 enzyme was purchased from SignalChem Lifesciences (Catalog# P92-31BG, Lot# H296-2).
The test compound, reference compound or water (control) was mixed with the enzyme (0.96 U) in a reaction buffer containing 50 mM Tris-HCl, 50 mM MgCl2 and 5 mM DTT (pH 8.5). Thereafter, the reaction was initiated by addition of 500 nM cAMP (substrate) and the mixture was incubated for 30 minutes at room temperature. For control basal measurements, the enzyme was omitted from the reaction mixture. After 30 minutes, the reaction was stopped and diluted by a factor of 100 with the reaction buffer supplemented with 500 μM IBMX. The fluorescence donor (europium chelate-labeled cAMP) and the fluorescence acceptor (anti-cAMP antibody labeled with the ULight™ dye) were then added together with 500 μM IBMX to a 10 μl aliquot. After 60 minutes, the fluorescence transfer corresponding to the amount of residual cAMP was measured at λex=337 nm, λem=620 nm and λem=665 nm using a microplate reader (PHERAstar, BMG). The enzyme activity was determined by dividing the signal measured at 665 nm by that measured at 620 nm (ratio) multiplied by 10000. The results were expressed as percent inhibition of the control enzyme activity. IC50 values (IC50=concentration causing a half-maximal inhibition of control specific activity) were derived from dose response measurements with ten different concentrations (n=3; N=1-3).
Several compounds according to the invention are tested with above mentioned assay.

human PDE4B1, sequence (Q07343 whole entry): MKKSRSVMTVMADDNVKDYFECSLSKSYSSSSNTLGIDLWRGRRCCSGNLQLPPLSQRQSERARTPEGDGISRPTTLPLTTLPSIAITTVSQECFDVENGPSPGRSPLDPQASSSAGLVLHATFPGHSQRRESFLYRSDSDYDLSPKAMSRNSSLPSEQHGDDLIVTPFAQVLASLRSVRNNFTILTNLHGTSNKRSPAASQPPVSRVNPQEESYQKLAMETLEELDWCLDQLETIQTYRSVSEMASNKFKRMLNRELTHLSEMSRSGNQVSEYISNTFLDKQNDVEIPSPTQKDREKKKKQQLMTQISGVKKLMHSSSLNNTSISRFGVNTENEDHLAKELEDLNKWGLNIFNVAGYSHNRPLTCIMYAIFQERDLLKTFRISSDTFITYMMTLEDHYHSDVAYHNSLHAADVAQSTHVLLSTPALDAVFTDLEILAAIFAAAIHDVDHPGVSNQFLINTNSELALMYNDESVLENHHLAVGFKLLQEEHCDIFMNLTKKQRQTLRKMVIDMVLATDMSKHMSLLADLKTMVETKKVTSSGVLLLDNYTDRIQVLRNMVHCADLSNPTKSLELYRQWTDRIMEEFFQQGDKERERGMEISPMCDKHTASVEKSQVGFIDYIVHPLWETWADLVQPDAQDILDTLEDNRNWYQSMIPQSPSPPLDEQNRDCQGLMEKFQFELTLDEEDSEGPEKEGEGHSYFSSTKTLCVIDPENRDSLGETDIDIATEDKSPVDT

| Compound | IC50 [µM] |
| --- | --- |
| CCc1cccc(-c2cnc(N3CC4(CC4)c4ccc(C(=O)N(C)CCO)cc43)nc2)c1 [Compound 266, 1-[5-(3-Ethyl-phenyl)-pyrimidin-2-yl]-N-(2-hydroxy-ethyl)-N-methyl-spiro[1,2-dihydro-indole-3,1′-cyclopropane]-6-carboxylic acid amide] | < 0.1 |
| CN(CCO)C(=O)c1ccc2c(c1)N(c1ncc(-c3cccc(C4CC4)n3)cn1)CC21CC1 [Compound 269, 1-[5-(6-Cyclopropyl-pyridin-2-yl)-pyrimidin-2-yl]-N-(2-hydroxy-ethyl)-N-methyl-spiro[1,2-dihydro-indole-3,1′-cyclopropane]-6-carboxylic acid amide] | < 0.1 |
| CN(CCO)C(=O)c1ccc2c(c1)N(c1ncc(-c3cc(F)ccn3)cn1)CC21CC1 [Compound 233, 1-[5-(4-Fluoro-pyridin-2-yl)-pyrimidin-2-yl]-N-(2-hydroxy-ethyl)-N-methyl-spiro[1,2-dihydro-indole-3,1′-cyclopropane]-6-carboxylic acid amide] | < 0.1 |
| O=C(O)C1CCCN(C(=O)c2ccc3c(c2)N(c2ncc(-c4ccccc4F)cn2)CC32CC2)C1 (stereo not shown) [Compound 238, 1-[1-[5-(2-Fluorophenyl)-pyrimidin-2-yl]-spiro[1,2-dihydro-indole-3,1′-cyclopropane]-6-carbonyl]-piperidine-3-carboxylic acid] | < 0.1 |
| Cc1cc(C)nc(-c2cnc(N3CC4(CC4)c4ccc(C(=O)N(C)CCO)cc43)nc2)c1 [Compound 260, 1-[5-(4,6-Dimethyl-pyridin-2-yl)-pyrimidin-2-yl]-N-(2-hydroxy-ethyl)-N-methyl-spiro[1,2-dihydro-indole-3,1′-cyclopropane]-6-carboxylic acid amide] | < 0.1 |
| CN(CCO)C(=O)c1ccc2c(c1)N(c1ncc(-c3cc([S+](C)[O-])ccn3)cn1)CC21CC1 (stereo not shown) [Compound 288, N-(2-Hydroxy-ethyl)-N-methyl-1-[5-[4-(methylsulfinyl)-pyridin-2-yl]-pyrimidin-2-yl]-spiro[1,2-dihydro-indole-3,1′-cyclopropane]-6-carboxylic acid amide] | < 0.1 |
| Cc1cc(N)cc(-c2cnc(N3CC4(CC4)c4ccc(C(=O)N(C)CCO)cc43)nc2)n1 [Compound 261, 1-[5-(4-Amino-6-methyl-pyridin-2-yl)-pyrimidin-2-yl]-N-(2-hydroxy-ethyl)-N-methyl-spiro[1,2-dihydro-indole-3,1′-cyclopropane]-6-carboxylic acid amide] | < 0.1 |
| O=C(c1ccc2c(c1)N(c1ncc(-c3ccccc3)cn1)CC21CC1)N1C[C@@H]2C[C@H]1CN2 [Compound 249, [(1S,4S)-2,5-Diazabicyclo[2.2.1]heptan-2-yl]-[1-(5-phenyl-pyrimidin-2-yl)-spiro[1,2-dihydro-indole-3,1′-cyclopropane]-6-yl]-methanone] | < 0.1 |
| CN(CCO)C(=O)c1ccc2c(c1)N(c1ncc(-c3cccc(S(C)(=O)=O)c3)cn1)CC21CC1 [Compound 277, N-(2-Hydroxy-ethyl)-N-methyl-1-[5-(3-methylsulfonyl-phenyl)-pyrimidin-2-yl]-spiro[1,2-dihydro-indole-3,1′-cyclopropane]-6-carboxylic acid amide] | < 0.1 |
| CN(CCO)C(=O)c1ccc2c(c1)N(c1ncc(-c3ccc(F)cn3)cn1)CC21CC1 [Compound 232, 1-[5-(5-Fluoro-pyridin-2-yl)-pyrimidin-2-yl]-N-(2-hydroxy-ethyl)-N-methyl-spiro[1,2-dihydro-indole-3,1′-cyclopropane]-6-carboxylic acid amide] | < 0.1 |
| Cc1ccc(F)c(-c2cnc(N3CC4(CC4)c4ccc(C(=O)N(C)CCO)cc43)nc2)c1 [Compound 227, 1-[5-(2-Fluoro-5-methyl-phenyl)-pyrimidin-2-yl]-N-(2-hydroxy-ethyl)-N-methyl-spiro[1,2-dihydro-indole-3,1′-cyclopropane]-6-carboxylic acid amide] | < 0.1 |
| CC(C)c1ccnc(-c2cnc(N3CC4(CC4)c4ccc(C(=O)N(C)CCO)cc43)nc2)c1 [Compound 242, N-(2-Hydroxy-ethyl)-1-[5-(4-isopropyl-pyridin-2-yl)-pyrimidin-2-yl]-N-methyl-spiro[1,2-dihydro-indole-3,1′-cyclopropane]-6-carboxylic acid amide] | < 0.1 |
| Cc1ccnc(-c2cnc(N3CC4(CC4)c4ccc(C(=O)N5C[C@@H]6C[C@H]5CN6)cc43)nc2)c1 [Compound 297, [(1S,4S)-2,5-Diazabicyclo[2.2.1]heptan-2-yl]-[1-[5-(4-methyl-pyridin-2-yl)-pyrimidin-2-yl]-spiro[1,2-dihydro-indole-3,1′-cyclopropane]-6-yl]-methanone] | < 0.1 |
| COc1ccnc(-c2cnc(N3CC4(CC4)c4ccc(C(=O)N5CCNC(=O)C5)cc43)nc2)c1 [Compound 244, 4-[1-[5-(4-Methoxy-pyridin-2-yl)-pyrimidin-2-yl]-spiro[1,2-dihydro-indole-3,1′-cyclopropane]-6-carbonyl]-piperazin-2-one] | < 0.1 |

The remaining lines, values ahead:

| IC50 [µM] | Compound |
| --- | --- |
| < 0.1 | CCNc1ccnc(-c2cnc(N3CC4(CC4)c4ccc(C(=O)N(C)CCO)cc43)nc2)c1 [Compound 316, 1-[5-(4-Ethylamino-pyridin-2-yl)-pyrimidin-2-yl]-N-(2-hydroxy-ethyl)-N-methyl-spiro[1,2-dihydro-indole-3,1′-cyclopropane]-6-carboxylic acid amide] |
| < 0.1 | COc1ccnc(-c2cnc(N3CC4(CC4)c4ccc(C(=O)N(C)CC(N)=O)cc43)nc2)c1 [Compound 321, N-(Carbamoyl-methyl)-1-[5-(4-methoxy-pyridin-2-yl)-pyrimidin-2-yl]-N-methyl-spiro[1,2-dihydro-indole-3,1′-cyclopropane]-6-carboxylic acid amide] |
| < 0.1 | C[S+]([O-])c1ccnc(-c2cnc(N3CC4(CC4)c4ccc(C(=O)N5CCOCC5)cc43)nc2)c1 (stereo not shown) [Compound 344, (1′-(5-(4-(methylsulfinyl)pyridin-2-yl)pyrimidin-2-yl)spiro[cyclopropane-1,3′-indolin]-6′-yl)(morpholino)methanone] |
| < 0.1 | CCc1ccnc(-c2cnc(N3CC4(CC4)c4ccc(C(=O)N5C[C@@H]6C[C@H]5CN6)cc43)nc2)c1 [Compound 298, [(1S,4S)-2,5-Diazabicyclo[2.2.1]heptan-2-yl]-[1-[5-(4-ethyl-pyridin-2-yl)-pyrimidin-2-yl]-spiro[1,2-dihydro-indole-3,1′-cyclopropane]-6-yl]-methanone] |
| < 0.1 | CN(CCO)C(=O)c1ccc2c(c1)N(c1ncc(-c3cc(N4CCCC4)ccc3F)cn1)CC21CC1 [Compound 359, 1-[5-(2-Fluoro-5-pyrrolidin-1-yl-phenyl)-pyrimidin-2-yl]-N-(2-hydroxy-ethyl)-N-methyl-spiro[1,2-dihydro-indole-3,1′-cyclopropane]-6-carboxylic acid amide] |
| < 0.1 | CN(CCO)C(=O)c1ccc2c(c1)N(c1ncc(-c3cc(F)ccc3F)cn1)CC21CC1 [Compound 364, 1-[5-(2,5-Difluoro-phenyl)-pyrimidin-2-yl]-N-(2-hydroxy-ethyl)-N-methyl-spiro[1,2-dihydro-indole-3,1′-cyclopropane]-6-carboxylic acid amide] |
| < 0.1 | CN(CCO)C(=O)c1ccc2c(c1)N(c1ncc(-c3cc(CO)cs3)cn1)CC21CC1 [Compound 347, N-(2-Hydroxy-ethyl)-1-[5-[4-(hydroxymethyl)-thiophen-2-yl]-pyrimidin-2-yl]-N-methyl-spiro[1,2-dihydro-indole-3,1′-cyclopropane]-6-carboxylic acid amide] |
| < 0.1 | CN(C)C(=O)c1ccc2c(c1)N(c1ncc(-c3ccccn3)cn1)CC21CC1 [Compound 306, N,N-Dimethyl-1-(5-pyridin-2-yl-pyrimidin-2-yl)-spiro[1,2-dihydro-indole-3,1′-cyclopropane]-6-carboxylic acid amide] |
| < 0.1 | CC(O)c1ccnc(-c2cnc(N3CC4(CC4)c4ccc(C(=O)N(C)CCO)cc43)nc2)c1 (stereo not shown) [Compound 318, N-(2-Hydroxy-ethyl)-1-[5-[4-(1-hydroxy-ethyl)-pyridin-2-yl]-pyrimidin-2-yl]-N-methyl-spiro[1,2-dihydro-indole-3,1′-cyclopropane]-6-carboxylic acid amide] |
| < 0.1 | CN(CCO)C(=O)c1ccc2c(c1)N(c1ncc(-c3cc(N4CCCC4)ccn3)cn1)CC21CC1 [Compound 315, N-(2-Hydroxy-ethyl)-N-methyl-1-[5-(4-pyrrolidin-1-yl-pyridin-2-yl)-pyrimidin-2-yl]-spiro[1,2-dihydro-indole-3,1′-cyclopropane]-6-carboxylic acid amide] |
| < 0.1 | Cc1ccnc(-c2cnc(N3CC4(CC4)c4ccc(C(=O)N(C)CC(N)=O)cc43)nc2)c1 [Compound 300, N-(Carbamoyl-methyl)-N-methyl-1-[5-(4-methyl-pyridin-2-yl)-pyrimidin-2-yl]-spiro[1,2-dihydro-indole-3,1′-cyclopropane]-6-carboxylic acid amide] |
